# Results as given in patent publication US20220184071A1, “GEPOTIDACIN FOR USE IN THE TREATMENT OF BACTERIAL URINARY TRACT INFECTIONS” (GlaxoSmithKline Intellectual Property Development Limited, priority 2019, published 2022).
# Read-outs that look alike come from different tables or passages of the source. Marks after values point to notes of the source that are not given here.
# Assays:
# [1] = system: all the gram-negative anaerobe organisms combined; assay: MIC by CLSI agar dilution, Example 6 Method 1; assay type: cell-based; conditions: all gram-negative anaerobes combined; for MIC90: read-out: overall MIC90
# Procedure: (§1) Antimicrobial activity was determined by agar dilution using the Clinical and Laboratory Standards Institute (CLSI) recommended procedure.
# (§2) The compounds were tested in serial two-fold dilutions and the minimum inhibitory concentration (MIC) was determined as the lowest concentration of the compound that inhibited visible growth. Gepotidacin was tested against 333 gram-negative anaerobic and 203 gram-positive anaerobic isolates collected from clinical samples in North America and Europe from 2000 to 2017; the majority collected from 2013 to 2016.
# (§3) Ceftriaxone, clindamycin, imipenem, metronidazole, moxifloxacin and piperacillin/tazobactam were included as comparators.
# [2] = system: gram-positive anaerobe organisms combined; assay: MIC by CLSI agar dilution, Example 6 Method 1; assay type: cell-based; conditions: gram-positive anaerobes combined; for MIC90: read-out: overall MIC90
# Procedure: as §1, §2, §3
# viridans streptococci = assay: MIC by CLSI broth microdilution, Example 5 Method 1; assay type: cell-based; conditions: 105 isolates
# Procedure: Gepotidacin was tested against 101 coagulase-negative staphylococci and 105 viridans streptococci in serial two-fold dilutions and the minimum inhibitory concentration (MIC) was determined as the lowest concentration of the compound that inhibited visible growth. All of the clinical isolates were collected in 2009-2012 from patient infections from North America, Europe, Latin America and Asia-Pacific medical centers and were mainly obtained from patients with documented nosocomial and community-acquired respiratory tract infections, bloodstream infections and skin and skin structure infections. Ceftriaxone, meropenem, penicillin, levofloxacin, moxifloxacin and linezolid were included as comparators when testing the viridans streptococci isolates. Oxacillin, levofloxacin, moxifloxacin and linezolid, were included as comparators when testing the coagulase-negative staphylococci isolates. MICs were determined by broth microdilution according to CLSI methods.
# E. coli = assay: Phase IIa baseline uropathogen susceptibility testing (CLSI broth microdilution); assay type: cell-based, Escherichia coli; conditions: baseline visit
# Procedure: (§4) This phase IIa single center study evaluated the safety, tolerability, pharmacokinetics, and efficacy of oral gepotidacin 1500 mg BID for 5 days in female subjects with acute cystitis. Clean catch mid-stream urine specimens were obtained for quantitative culture by standard methods. Urine samples were taken from all participants pre-treatment (baseline) and at all post-baseline visits. All urine samples were sent to a central laboratory (PPD Global Clinical Laboratories, Highland Heights, Ky., USA) for Gram stain, quantitative culture, pathogen identification and susceptibility testing. See FIG. 1 for participant disposition and study outline.
# (§5) Susceptibility testing by CLSI broth microdilution and gradient diffusion (fosfomycin only) was conducted (CLSI, 2015, Methods for dilution antimicrobial susceptibility tests for bacteria that grow aerobically; approved standard-tenth edition; and CLSI, 2018. Performance Standards for Antimicrobial Susceptibility Testing; Twenty-seventh Informational Supplement M100-S28). Inclusion in the microbiological intent-to-treat population (micro-ITT), required growth of a qualifying baseline uropathogen (≥10^5 CFU/mL). See FIG. 2 for the baseline algorithm.
# K. pneumoniae = assay: as above; assay type: cell-based, Klebsiella pneumoniae; conditions: baseline isolate
# Procedure: as §4, §5
# C. koseri = assay: as above; assay type: cell-based, Citrobacter koseri; conditions: baseline isolate
# Procedure: as §4, §5
# qualifying uropathogens = assay: as above; assay type: cell-based
# Procedure: as §4, §5
# [3] = system: Staphylococcus saprophyticus; assay: MIC by CLSI broth microdilution in CAMHB and urine, Example 1 Method 3; assay type: cell-based; conditions: for Mean MIC: n = 6
# Procedure: Antimicrobial activity was determined by broth microdilution using the CLSI recommended procedure.
# (§6) The compounds were tested in serial two-fold dilutions and the minimum inhibitory concentration (MIC) was determined as the lowest concentration of the compound that inhibited visible growth.
# In particular, gepotidacin was tested against 6 strains of Staphylococcus saprophyticus from the collection of isolates at Laboratory Specialists, Inc., Westlake, Ohio.
# Levofloxacin was included as the comparator in the study to determine the effect of urine on the in vitro activity of gepotidacin against Staphylococcus saprophyticus. MICs were determined by broth microdilution according CLSI methods.
# (§7) The data shown in the table below are results from an in vitro study conducted with the same S. saprophyticus isolates described above, to determine the effect of urine on the in vitro activity of gepotidacin and levofloxacin against S. saprophyticus. Study strains were tested for MICs (minimum inhibitory concentrations) according to reference CLSI broth microdilution method using cation-adjusted Mueller Hinton Broth (CAMHB) and with the addition of 25%, 50% and 100% urine (not pH adjusted, pH 6.42) and 100% urine (pH adjusted, 7.31 and 8.07).
# [4] = system: Staphylococcus epidermidis; assay: MIC by CLSI broth microdilution in CAMHB and urine, Example 5 Method 2; assay type: cell-based; conditions: for Mean MIC: n = 4
# Procedure: as §6
# In particular, gepotidacin was tested against 4 strains of Staphylococcus epidermidis from the collection of isolates at Laboratory Specialists, Inc., Westlake, Ohio.
# Levofloxacin was included as the comparator in the study to determine the effect of urine on the in vitro activity of gepotidacin against Staphylococcus epidermidis. MICs were determined by broth microdilution according CLSI methods.
# as §7, with “epidermidis” for “saprophyticus”, “epidermidis.” for “saprophyticus.”, “MICs” for “MICs (minimum inhibitory concentrations)”
# [5] = Escherichia coli, Participant #2 (E. coli), read-out: MIC
# [6] = Escherichia coli, Participant #3 (E. coli), read-out: MIC
# [7] = Escherichia coli, Participant #4 (E. coli), read-out: MIC
# [8] = Escherichia coli, Participant #5 (E. coli, MDR and fluoroquinolone-resistant), read-out: MIC
# [9] = Escherichia coli, Participant #6 (E. coli, MDR), read-out: MIC
compound,measurement,setting,value
COc1c(N2C[C@@H]3CCCN[C@@H]3C2)c(F)cc2c(=O)c(C(=O)O)cn(C3CC3)c12 [moxifloxacin],MIC90,[1],8 µg/mL
same,MIC90,[2],> 8 µg/mL
same,MIC90,viridans streptococci,0.25 µg/mL
Cc1nnc(SCC2=C(C(=O)O)N3C(=O)[C@@H](NC(=O)Cn4cnnn4)[C@H]3SC2)s1 [Cefazolin],MIC,E. coli; [5],2 µg/mL
same,MIC,E. coli; [6],4 µg/mL
same,MIC,E. coli; [7],2 µg/mL
same,MIC,E. coli; [8],4 µg/mL
same,MIC,E. coli; [9],32 µg/mL
Trimethoprim-sulfamethoxazole,MIC,E. coli; Participant #2 (E. coli),0.03 µg/mL
same,MIC,E. coli; Participant #3 (E. coli),0.03 µg/mL
same,MIC,E. coli; Participant #4 (E. coli),0.03 µg/mL
same,MIC,"E. coli; Participant #5 (E. coli, MDR and fluoroquinolone-resistant)",>8^b μg/mL
same,MIC,"E. coli; Participant #6 (E. coli, MDR)",>8^b μg/mL
CC1(C)S[C@@H]2[C@H](NC(=O)[C@H](N)c3ccccc3)C(=O)N2[C@H]1C(=O)O [Ampicillin],Susceptibility of the qualifying uropathogen,K. pneumoniae,resistant
same,Susceptibility of the qualifying uropathogen,C. koseri,resistant
same,MIC,E. coli; [5],> 64 µg/mL
same,MIC,E. coli; [6],2 µg/mL
same,MIC,E. coli; [7],1 µg/mL
same,MIC,E. coli; [8],> 64 µg/mL
same,MIC,E. coli; [9],> 64 µg/mL
C[C@@H]1O[C@@H]1P(=O)(O)O [fosfomycin],Resistance among the baseline uropathogens recovered,qualifying uropathogens,None of the baseline uropathogens recovered were resistant
CO/N=C(\C(=O)N[C@@H]1C(=O)N2C(C(=O)O)=C(CSc3nc(=O)c(=O)[nH]n3C)CS[C@H]12)c1csc(N)n1 [ceftriaxone],MIC90,[1],512 µg/mL
same,MIC90,[2],256 µg/mL
Cc1ncc([N+](=O)[O-])n1CCO [metronidazole],MIC90,[1],2 µg/mL
same,MIC90,[2],0.5 µg/mL
C[C@@H](O)[C@H]1C(=O)N2C(C(=O)O)=C(S[C@@H]3CN[C@H](C(=O)N(C)C)C3)[C@H](C)[C@H]12 [meropenem],MIC90,viridans streptococci,0.25 µg/mL
same,Resistance among the baseline uropathogens recovered,qualifying uropathogens,None of the baseline uropathogens recovered were resistant
piperacillin/tazobactam,overall MIC90,[1],16 µg/mL
same,overall MIC90,[2],16 µg/mL
same,Resistance among the baseline uropathogens recovered,qualifying uropathogens,None of the baseline uropathogens recovered were resistant
"C[C@H]1COc2c(N3CCN(C)CC3)c(F)cc3c(=O)c(C(=O)O)cn1c23 [Levofloxacin, reference compound]",Mean Dilution Difference,[3]; 25% Urine (pH 7.09) vs CAMHB,0.50
same,Mean difference,[3]; 25% Urine (pH 7.09) vs CAMHB,0.33
same,N(%) ± 1 dilution,[3]; 25% Urine (pH 7.09) vs CAMHB,6 (100%)
same,N(%) ± 2 dilution,[3]; 25% Urine (pH 7.09) vs CAMHB,6 (100%)
same,Mean MIC,[3]; 25% Urine (pH 7.09),1.12 µg/mL
same,Mean Dilution Difference,[3]; 50% Urine (6.99) vs CAMHB,0.17
same,Mean difference,[3]; 50% Urine (6.99) vs CAMHB,0.10
same,N(%) ± 1 dilution,[3]; 50% Urine (6.99) vs CAMHB,6 (100%)
same,N(%) ± 2 dilution,[3]; 50% Urine (6.99) vs CAMHB,6 (100%)
same,Mean MIC,[3]; 50% Urine (6.99),0.89 µg/mL
same,Mean Dilution Difference,[3]; 100% Urine (pH 6.42) vs CAMHB,0.67
same,Mean difference,[3]; 100% Urine (pH 6.42) vs CAMHB,0.47
same,N(%) ± 1 dilution,[3]; 100% Urine (pH 6.42) vs CAMHB,6 (100%)
same,N(%) ± 2 dilution,[3]; 100% Urine (pH 6.42) vs CAMHB,6 (100%)
same,Mean MIC,[3]; 100% Urine (pH 6.42),1.26 µg/mL
same,Mean Dilution Difference,[3]; 100% Urine (pH 7.31) vs CAMHB,1.50
same,Mean difference,[3]; 100% Urine (pH 7.31) vs CAMHB,1.45
same,N(%) ± 1 dilution,[3]; 100% Urine (pH 7.31) vs CAMHB,2 (33.3%)
same,N(%) ± 2 dilution,[3]; 100% Urine (pH 7.31) vs CAMHB,6 (100%)
same,Mean MIC,[3]; 100% Urine (pH 7.31),2.24 µg/mL
same,Mean Dilution Difference,[3]; 100% Urine (pH 8.07) vs CAMHB,1.17
same,Mean difference,[3]; 100% Urine (pH 8.07) vs CAMHB,0.99
same,N(%) ± 1 dilution,[3]; 100% Urine (pH 8.07) vs CAMHB,5 (83.3%)
same,N(%) ± 2 dilution,[3]; 100% Urine (pH 8.07) vs CAMHB,6 (100%)
same,Mean MIC,[3]; 100% Urine (pH 8.07),1.78 µg/mL
same,Mean MIC,"[3]; CAMHB (ref. method, pH 7.2)",0.79 µg/mL
same,Mean Dilution Difference,[4]; 25% Urine (pH 7.09) vs CAMHB,0.25
same,Mean difference,[4]; 25% Urine (pH 7.09) vs CAMHB,0.03
same,N(%) ± 1 dilution,[4]; 25% Urine (pH 7.09) vs CAMHB,4 (100%)
same,N(%) ± 2 dilution,[4]; 25% Urine (pH 7.09) vs CAMHB,4 (100%)
same,Mean MIC,[4]; 25% Urine (pH 7.09),0.17 µg/mL
same,Mean Dilution Difference,[4]; 50% Urine (6.99) vs CAMHB,0.25
same,Mean difference,[4]; 50% Urine (6.99) vs CAMHB,0.03
same,N(%) ± 1 dilution,[4]; 50% Urine (6.99) vs CAMHB,4 (100%)
same,N(%) ± 2 dilution,[4]; 50% Urine (6.99) vs CAMHB,4 (100%)
same,Mean MIC,[4]; 50% Urine (6.99),0.17 µg/mL
same,Mean Dilution Difference,[4]; 100% Urine (pH 6.42) vs CAMHB,0.51
same,Mean difference,[4]; 100% Urine (pH 6.42) vs CAMHB,0.06
same,N(%) ± 1 dilution,[4]; 100% Urine (pH 6.42) vs CAMHB,4 (100%)
same,N(%) ± 2 dilution,[4]; 100% Urine (pH 6.42) vs CAMHB,4 (100%)
same,Mean MIC,[4]; 100% Urine (pH 6.42),0.21 µg/mL
same,Mean Dilution Difference,[4]; 100% Urine (pH 7.31) vs CAMHB,0.78
same,Mean difference,[4]; 100% Urine (pH 7.31) vs CAMHB,0.10
same,N(%) ± 1 dilution,[4]; 100% Urine (pH 7.31) vs CAMHB,3 (75%)
same,N(%) ± 2 dilution,[4]; 100% Urine (pH 7.31) vs CAMHB,4 (100%)
same,Mean MIC,[4]; 100% Urine (pH 7.31),0.25 µg/mL
same,Mean Dilution Difference,[4]; 100% Urine (pH 8.07) vs CAMHB,1.78
same,Mean difference,[4]; 100% Urine (pH 8.07) vs CAMHB,0.35
same,N(%) ± 1 dilution,[4]; 100% Urine (pH 8.07) vs CAMHB,2 (50%)
same,N(%) ± 2 dilution,[4]; 100% Urine (pH 8.07) vs CAMHB,3 (75%)
same,Mean Dilution Difference,"[4]; 100% Urine (pH 8.07) vs CAMHB, listed as levofloxacin",approximately 1.8
same,Mean MIC,[4]; 100% Urine (pH 8.07),0.5 µg/mL
same,Mean MIC,"[4]; CAMHB (ref. method, pH 7.2)",0.15 µg/mL
C[C@@H](O)[C@H]1C(=O)N2C(C(=O)O)=C(SCCN=CN)C[C@H]12 [imipenem],MIC90,[1],0.5 µg/mL
same,MIC90,[2],8 µg/mL
CCC[C@@H]1C[C@@H](C(=O)N[C@@H]([C@H]2O[C@H](SC)[C@H](O)[C@@H](O)[C@H]2O)[C@H](C)Cl)N(C)C1 [clindamycin],MIC90,[1],> 8 µg/mL
same,MIC90,[2],> 8 µg/mL
